The subject of data set [1] is Small Brown Planthopper (Laodelphax Striatellus). The experiment in a line: Test of insecticidal efficacy against small brown planthopper (Test Example 2). It is filed as in vivo. To be noted: 500 ppm, rice plants soaked 30 seconds, third-instar larvae, eight days after inoculation; criteria same as in Test Example 1. From the text: Test of Insecticidal Efficacy Against Small Brown Planthopper (Laodelphax Striatellus)

Data set [2] relates to Green Peach Aphid (Myzus Persicae). The experiment in a line: Test of preventive value against green peach aphid (Test Example 1). It is filed as in vivo. To be noted: 500 ppm, sprayed over stems and leaves of potted Chinese cabbages, sixth day after spraying.

In the case of `CN1C(=S)c2nn(-c3cccnc3)cc2Oc2ccccc21` [Compound No. 2-2, 9-methyl-2-(pyridine-3-yl)-2H-benzo [b]pyrazolo [3,4-f][1,4]oxazepine-10 (9H)-thione], the “Corrected insect mortality, judgment” value in data set [1] is “A to D”. Further, in data set [2], the “Preventive value, judgment” value is recorded as “A to D”.
`O=C1OCCC1N1C(=O)c2nn(-c3cccnc3)cc2Oc2cc(F)ccc21` (centres unmarked) [8-31]: in data set [1], the “Corrected insect mortality, judgment” value is reported as “A to D”. Further, the “Preventive value, judgment” value in data set [2] is “A to D”.
On to `CN1C(=O)c2nn(-c3cccnc3)cc2Oc2ccncc21` [12-1], for which the “Corrected insect mortality, judgment” value in data set [1] was “A to D”. The “Preventive value, judgment” value in data set [2] is “A to D”.
With `CN1C(=O)c2nn(-c3cccnc3)cc2Oc2cc(F)ccc21` [Compound No. 1-11, 6-fluoro-9-methyl-2-(pyridine-3-yl)-2H-benzo [b]pyrazolo [3,4-f][1,4]oxazepine-10 (9H)-one], the “Corrected insect mortality, judgment” value in data set [1] is “A to D”. Moreover, the “Preventive value, judgment” value in data set [2] was “A to D”.

These data come from patent US10100061B2, “Oxazepine compound and agricultural/horticultural insecticide containing said compound as active ingredient, and method for using the same” (NIHON NOHYAKU CO., LTD., priority 2014, dated 2018).
